Measured values from US9499485B2, “Compounds that are S1P modulating agents and/or ATX modulating agents” (BIOGEN MA INC., priority 2012, dated 2016).

Columns and labels:
Human ATX protein = target: T1, Human ATX protein (Homo sapiens, UniProt Q13822); test: ATX biochemical FRET assay with FS-3 substrate; conditions: FS-3 2 μM, ATX 1.0 μg/mL, binned table, read-out: IC50 (μm)
T1 construct: made in house
From the text: ATX (Autotaxin) is a 125 KDa glycoprotein with lysophospholipase D (LPLD) activity that generates the bioactive lipid lysophosphatidic acid (LPA) from lysophosphatidylcholine (LPC). The ATX biochemical assay utilizes a FRET (fluorescence resonance energy transfer) technology platform. The fluorescence signal of FRET substrate FS-3 is quenched due to intra-molecular FRET of a fluorophore to a non-fluorescing quencher (Ferguson, C. G., et al., Org. Lett. 2006 May 11; 8(10): 2023-2026, which is incorporated by reference in its entirety). ATX catalyzes the hydrolysis of the substrate which separates the dabsyl quencher from the fluorescein reporter, which becomes fluorescent. The reaction is monitored by a SpectraMax M5 (Molecular Devices, Sunnyvale, Calif.) with at excitation wavelength 485 nm and emission wavelength 535 nm.
2×ATX assay buffer: 100 mM Tris, 280 mM NaCl, 10 mM KCl, 2 mM CaCl2, 2 mM MgCl2, pH 7.4.
Human ATX protein: expressed and purified in house. Stored at −80° C.
Substrate FS-3 (Echelon, L-2000): 100 μg in 77.74 μL H2O (1 mM stock), stored at −20° C.
Compound dilution—All compounds were provided at 10 mM in 100% DMSO. In the first well, 2 μL of 10 mM compound was added to 78 μL of DMSO (1:40 dilution). In subsequent wells 3-fold dilution (total 10 dilutions) were performed.
1×ATX assay buffer was made up with a final concentration of 1 mg/mL fatty acid free-BSA using 2×ATX assay buffer, 10 mg/ml fatty acid free-BSA and ddH2O.
ATX protein was diluted with 1×ATX assay buffer to a concentration of 1.32 μg/mL (1.32×). 38 μL was added per well to the assay plate. The final concentration of ATX in the reaction as 1.0 μg/mL.
2 μL per well of compounds was transferred to provide the desired concentration. The plate was centrifuged, then incubated at room temperature for 30 minutes on the shaker.
FS-3 was diluted with 1×ATX assay buffer to a concentration of FS-3 of 10 μM (5×). Then, 10 μL was added per well to the assay plate. The final concentration of FS-3 in the reaction was 2 μM. The plate was centrifuged. The plate was kept shaking at room temperature for 2 hours. Because FS-3 substrate is light sensitive, plates were kept covered and protected from light.
Fluorescence was measured using SpectraMax M5 (excitation at 485 nm/emission at 538 nm, top read).

human S1P4 = target: T2, human S1P4 (Homo sapiens, UniProt O95977); test: S1P receptor calcium flux assay, antagonist format (S1P4 antagonist activity); type: cell-based; conditions: calcium mobilization, recombinant CHEM cells expressing human S1P4, stimulated with EC80 of reference agonist
T2 construct: host or cells: recombinant CHEM cells
T2 sequence (O95977 1-384): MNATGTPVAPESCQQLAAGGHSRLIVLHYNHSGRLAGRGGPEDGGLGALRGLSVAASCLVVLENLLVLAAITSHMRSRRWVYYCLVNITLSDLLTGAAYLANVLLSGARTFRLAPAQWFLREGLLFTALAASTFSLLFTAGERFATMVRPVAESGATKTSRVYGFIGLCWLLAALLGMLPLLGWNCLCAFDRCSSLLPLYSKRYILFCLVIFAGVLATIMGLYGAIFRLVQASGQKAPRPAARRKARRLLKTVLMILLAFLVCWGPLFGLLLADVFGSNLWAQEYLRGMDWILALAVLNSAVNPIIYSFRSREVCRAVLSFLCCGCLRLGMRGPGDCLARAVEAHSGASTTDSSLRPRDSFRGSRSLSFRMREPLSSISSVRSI
Method: Compounds that are not specific for a particular S1P receptor can cause undesirable side effects. Accordingly, compounds are tested to identify those that are specific. Accordingly, the test compounds are tested in a calcium mobilization assay/S1P receptor activity assay. The procedure is essentially as described in Davis et al. (2005) Journal of Biological Chemistry, vol. 280, pp. 9833-9841, which is incorporated by reference in its entirety with the following modifications. Calcium mobilization assays are performed in recombinant CHEM cells expressing human S1P1, S1P2, S1P3, S1P4, or S1P5 purchased from Millipore (Billerica, Mass.). To detect free intracellular calcium, S1P1, S1P2, S1P3, S1P4, or S1P5 cells are loaded with FLIPR Calcium 4 dye from Molecular Devices (Sunnyvale, Calif.). Cells are imaged for calcium mobilization using a FLIPR^TETRA equipped with a 96-well dispense head.
Agonist percentage activation determinations were obtained by assaying sample compounds and referencing the Emax control for each receptor profiled. Antagonist percentage inhibition determinations were obtained by assaying sample compounds and referencing the control EC80 wells for each receptor profiled.
Sample compounds were plated in an eight-point, four-fold dilution series in duplicate with a top concentration of 10 μM. The concentrations described here reflect the final concentration of the compounds during the antagonist assay. During the agonist assay the compound concentrations were 1.25 fold higher to allow for the final desired concentration to be achieved with further dilution by EC80 of reference agonists during the antagonist assay.
Reference agonists were handled as mentioned above serving as assay control. The reference agonists were handled as described above for Emax.
Assay was read for 180 seconds using the FLIPR^TETRA (This assay run added sample compounds and reference agonist to respective wells). At the completion of the first “Single Addition” assay run, assay plate was removed from the FLIPR^TETRA and placed at 25° C. for seven (7) minutes.
Using the EC80 values determined during the agonist assay, stimulated all pre-incubated sample compound and reference antagonist (if applicable) wells with EC80 of reference agonist. Read for 180 seconds using the FLIPR^TETRA (This assay added reference agonist to respective wells—then fluorescence measurements were collected to calculate percentage inhibition values).

SMILES | IC50 (Human ATX protein) [µM] | IC50 (human S1P4) [µM]
O=C(O)C[C@H]1CCCN(Cc2cccc3ccc(O[C@H]4CC[C@@H](C(F)(F)F)CC4)c(C(F)(F)F)c23)C1 [Example 28, 2-((R)-1-((8-(trifluoromethyl)-7-((cis-4-(trifluoromethyl)cyclohexyl)oxy)naphthalen-1-yl)methyl)piperidin-3-yl)acetic acid] | 0.5 to 5 | 
CC(C)(C)[C@H]1CC[C@H](Oc2ccc3cccc(CN4CCC(C(=O)O)CC4)c3c2)CC1 [Example 29, 1-((7-((trans-4-(tert-butyl)cyclohexyl)oxy)naphthalen-1-yl)methyl)piperidine-4-carboxylic acid] | > 5 | ≤ 5
CCCCCCCOc1ccc2cccc(CN3CCC(C(=O)O)CC3)c2c1 [Example 30, 1-((7-(heptyloxy)naphthalen-1-yl)methyl)piperidine-4-carboxylic acid] | > 5 | ≤ 5
CC(C)(C)[C@H]1CC[C@H](Oc2ccc3c(CN4CCC(C(=O)O)CC4)cccc3c2)CC1 [Example 31, 1-((6-((trans-4-(tert-butyl)cyclohexyl)oxy)naphthalen-1-yl)methyl)piperidine-4-carboxylic acid] |  | ≤ 5
CCCCCCCOc1ccc2c(CN3CCC(C(=O)O)CC3)cccc2c1 [Example 32, 1-((6-(heptyloxy)naphthalen-1-yl)methyl)piperidine-4-carboxylic acid] | > 5 | ≤ 5
CC(C)(C)[C@H]1CC[C@H](Oc2ccc3c(CN4CCC(CC(=O)O)CC4)cccc3c2)CC1 [Example 33, 2-(1-((6-((trans-4-(tert-butyl)cyclohexyl)oxy)naphthalen-1-yl)methyl)piperidin-4-yl)acetic acid] | > 5 | ≤ 5
CCCCCCCOc1ccc2c(CN3CCC(CC(=O)O)CC3)cccc2c1 [Example 34, 2-(1-((6-(heptyloxy)naphthalen-1-yl)methyl)piperidin-4-yl)acetic acid] | > 5 | ≤ 5
